# Assay results taken from patent publication US11972843B2, “Systems and methods for predicting adverse events and assessing level of sedation during medical procedures” (Massachusetts Institute of Technology, priority 2015, dated 2024).
# Test system: patients receiving propofol during procedural sedation
# Details: 23 patients; per patient, average of the pharmacokinetic-model effect-site concentrations at end of procedure with all boluses and with the last bolus removed
# Description: The start and end of the procedure were marked by the clinical staff who collected the data. The average of the “all drugs” value and the “last drug removed” value at the time of the end of the procedure constitutes, in this illustrative embodiment, an estimate of the titration threshold that the clinician aims to remain above between the start and end of the procedure.
# The titration threshold for each patient was established as described in connection with FIG. 17, namely: the start and end of the procedure were marked by the clinical staff who collected the data; the end-procedure effect-site concentration, shown on the y-axis, of each patient was estimated with all drug administrations, and again without the final bolus administration; and the average of these two values was taken as the estimated titration threshold for that patient. […] The titration threshold is estimated at the time the procedure ends since the proceduralist deems it necessary to administer a final bolus in order to render the patient's sedation level sufficient to endure the procedure.
compound,measurement,value
CC(C)c1cccc(C(C)C)c1O [propofol],mean of the estimated titration thresholds (end-procedure effect-site concentration),1.72 micrograms/milliliter
